Experimental data from patent publication US20230167073A1 (Teijin Pharma Limited, priority 2020, published 2023).

Target: T1, Human TRPC6 (Homo sapiens, UniProt Q9Y210)
T1 construct: expressed in transfected cells
T1 sequence (Q9Y210 1-931): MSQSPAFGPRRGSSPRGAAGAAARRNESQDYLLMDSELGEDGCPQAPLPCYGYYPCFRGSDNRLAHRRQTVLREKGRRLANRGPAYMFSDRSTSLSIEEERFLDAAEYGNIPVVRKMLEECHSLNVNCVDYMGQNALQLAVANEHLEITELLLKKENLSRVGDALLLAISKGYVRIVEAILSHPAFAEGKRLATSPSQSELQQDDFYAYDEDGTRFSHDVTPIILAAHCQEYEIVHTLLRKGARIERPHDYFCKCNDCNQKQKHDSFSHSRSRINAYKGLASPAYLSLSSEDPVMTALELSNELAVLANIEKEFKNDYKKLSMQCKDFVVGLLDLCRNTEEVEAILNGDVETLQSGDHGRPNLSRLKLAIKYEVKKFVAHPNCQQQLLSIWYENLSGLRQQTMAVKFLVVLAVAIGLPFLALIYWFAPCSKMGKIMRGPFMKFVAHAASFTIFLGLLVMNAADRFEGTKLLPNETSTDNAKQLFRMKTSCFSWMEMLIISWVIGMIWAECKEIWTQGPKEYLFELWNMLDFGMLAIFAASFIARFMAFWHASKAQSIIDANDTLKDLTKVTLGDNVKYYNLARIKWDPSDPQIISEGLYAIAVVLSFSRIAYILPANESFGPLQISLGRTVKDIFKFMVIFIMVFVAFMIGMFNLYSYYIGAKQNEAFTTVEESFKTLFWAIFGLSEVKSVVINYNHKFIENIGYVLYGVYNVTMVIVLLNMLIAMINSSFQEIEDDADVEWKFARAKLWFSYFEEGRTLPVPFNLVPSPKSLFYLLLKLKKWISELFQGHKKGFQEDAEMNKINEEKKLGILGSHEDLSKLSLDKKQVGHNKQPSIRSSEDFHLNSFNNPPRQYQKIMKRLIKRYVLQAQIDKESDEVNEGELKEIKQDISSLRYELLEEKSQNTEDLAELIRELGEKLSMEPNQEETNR
Assay: Evaluation of TRPC6 channel inhibitory activity (2), HEK293 cells with stably introduced human TRPC6, OAG stimulation, FLIPR tetra (Compound Nos. 1293 to 1405)
Assay type: cell-based
Conditions: HEK293 cells with stably introduced human TRPC6, OAG 50 μM/0.5% DMSO, read-out: Inhibitory activity (pIC50 class) (converted)
Method: Evaluation of TRPC6 Channel Inhibitory Activity (2) (Compound Nos. 1293 to 1405)
The activity of the TRPC6 inhibitor was measured by stimulating HEK293 cells, in which human TRPC6 was stably introduced, with OAG (1-Oleoyl-2-acetyl-sn-glycerol, Miliipore Sigma, 06754), using the FLIPR tetra system. The cells were proliferated in a humid environment at 37° C. 5% CO2 using a growth medium (DMEM (Dulbecco's Modified Eagle's Medium) high glucose containing 10% fetal bovine serum, 1×PSGlu (penicillin-streptomycin glutamine), 1×NEAA (Non-essential amino acid), sodium pyruvate and 200 μg/mL hyglomycin. For cell subculture, the cells were proliferated to 70-90% confluence, and gently washed twice with PBS (phosphate-buffered saline) free of calcium and magnesium after removing the medium. Then, the cells were incubated at 37° C. for 5 minutes after adding trypsin (3 mL), peeled off by tapping the flask at the base of the hand, 7 mL of growth medium was added to inactivate trypsin, and then the cells were resuspended. Usually, the cells were separated every 2-3 days to become a cell density of ⅕. The day before evaluation, the cells were seeded in a poly-D-lysine (PDL) coated 384-well plate using a multi-channel pipette or multidrop at a cell density of 1.0-1.5×10^4 cells/25 μL/well. After culturing overnight in a PDL-coated 384 Blackwell plate, a fluorescent dye buffer was added first to the cells and the cells were cultured at room temperature for 90-120 minutes. For preparing 10 mL of fluorescent dye buffer, 9 mL of assay buffer, 1 mL of 10×PBX signal enhancer, and 10 μL of calcium indicator were mixed. Cells treated with the compounds of each level 25 minutes before the stimulation with OAG of TRPC6 agonist were incubated. OAG solution was prepared by adding OAG to assay buffer (Ca ringer solution base: 10 mM HEPES (4-(2-hydroxyethyl)-1-piperazine-ethanesulfonic acid), 4 mM MgCl2, 120 mM NaCl, 5 mM KCl, pH=7.2 (25° C.)+0.1% BSA+2 mM CaCl2)) to give an OAG concentration of 0.2 mM/2% DMSO. The final concentration of OAG added to the cells is 50 μM/0.5% DMSO. A volume of 12.5 μL of OAG solution was added, and activation of TRPC6 channel was measured using the FLIPR tetra system assaying the change in intracellular calcium level as an index. The 180 seconds imaging frame was defined as the background signal, and the subtraction of the background signal from the raw data was used as the fluorescence peak signal. Each fluorescence peak signal is standardized using an OAG-induced signal and buffer-induced signal as 100% and 0%, respectively. The inhibition rate obtained by plotting the peak signal after the addition of the compounds of each level was analyzed by a four-parameter logistic regression to quantify the inhibition rate in the logarithm of the inverse of the effective concentration which gives a 50% inhibition rate (pIC50). The intensity was expressed by the above-mentioned symbols (+, ++, +++).

| SMILES | IC50 |
| --- | --- |
| Cc1cc(Oc2cc(C#N)ccc2-c2cccc3cnc(N)nc23)cc(N2CCOCC2)n1 [compound 1303, 4-(2-aminoquinazolin-8-yl)-3-(2-methyl-6-morpholin-4-ylpyridin-4-yl)oxybenzonitrile] | > 1000 nM |
| Cc1cc(Oc2cc(C#N)ccc2-c2ccc(CN)c(C)n2)cc(N2CCOCC2)n1 [compound 1304, 4-[5-(aminomethyl)-6-methylpyridin-2-yl]-3-(2-methyl-6-morpholin-4-ylpyridin-4-yl)oxybenzonitrile] | < 10 nM |
| COc1nc(-c2ccc(C#N)cc2Oc2cc(C)nc(N3CCOCC3)c2)ccc1CN [compound 1305, 4-[5-(aminomethyl)-6-methoxypyridin-2-yl]-3-(2-methyl-6-morpholin-4-ylpyridin-4-yl)oxybenzonitrile] | 10 to 1000 nM |
| Cn1nc([C@@H]2CCOC2)cc1Oc1cc(C#N)ccc1-c1ccc(CN)cn1 [compound 1306, 4-[5-(aminomethyl)pyridin-2-yl]-3-[2-methyl-5-[(3S)-oxolan-3-yl]pyrazol-3-yl]oxybenzonitrile] | < 10 nM |
| CNc1ccc(-c2ccc(C#N)cc2Oc2cc(C)nc(N3CCOCC3)c2)nc1 [compound 1307, 4-[5-(methylamino)pyridin-2-yl]-3-(2-methyl-6-morpholin-4-ylpyridin-4-yl)oxybenzonitrile] | > 1000 nM |
| Cn1nc([C@@H]2CCOC2)cc1Oc1cc(C#N)ccc1-c1ncc(CN)cn1 [compound 1308, 4-[5-(aminomethyl)pyrimidin-2-yl]-3-[2-methyl-5-[(3S)-oxolan-3-yl]pyrazol-3-yl]oxybenzonitrile] | 10 to 1000 nM |
| Cn1cc(-c2cc(Oc3cc(C#N)ccc3-c3ccc(CN)cn3)n(C)n2)cn1 [compound 1309, 4-[5-(aminomethyl)pyridin-2-yl]-3-[2-methyl-5-(1-methylpyrazol-4-yl)pyrazol-3-yl]oxybenzonitrile] | 10 to 1000 nM |
| COc1nc(-c2ccc(C#N)cc2Oc2cc(-c3ccccn3)nn2C)ccc1CN [compound 1310, 4-[5-(aminomethyl)-6-methoxypyridin-2-yl]-3-(2-methyl-5-pyridin-2-ylpyrazol-3-yl)oxybenzonitrile] | 10 to 1000 nM |
| Cc1cc(Oc2cc(Cl)ccc2-c2ncc(CCN)cn2)cc(N2CCOCC2)n1 [compound 1311, 2-[2-[4-chloro-2-(2-methyl-6-morpholin-4-ylpyridin-4-yl)oxyphenyl]pyrimidin-5-yl]ethanamine] | 10 to 1000 nM |
| Cn1nc(-c2ccccn2)cc1Oc1cc(C#N)ccc1-c1ccc(C(F)(F)CN)cn1 [compound 1312, 4-[5-(2-amino-1,1-difluoroethyl)pyridin-2-yl]-3-(2-methyl-5-pyridin-2-ylpyrazol-3-yl)oxybenzonitrile] | < 10 nM |
| Cn1nc(C2CCOCC2)cc1Oc1cc(C#N)ccc1-c1ncc([C@@H](F)CN)cn1 [compound 1313, 4-[5-[(1R)-2-amino-1-fluoroethyl]pyrimidin-2-yl]-3-[2-methyl-5-(oxan-4-yl)pyrazol-3-yl]oxybenzonitrile] | 10 to 1000 nM |
| Cn1nc(C2CCOCC2)cc1Oc1cc(C#N)ccc1-c1ncc([C@H](F)CN)cn1 [compound 1314, 4-[5-[(1S)-2-amino-1-fluoroethyl]pyrimidin-2-yl]-3-[2-methyl-5-(oxan-4-yl)pyrazol-3-yl]oxybenzonitrile] | 10 to 1000 nM |
| Cc1cc(Oc2cc(Cl)ccc2-c2ncc(CN)cn2)cc(N2CCOCC2)n1 [compound 1315, [2-[4-chloro-2-(2-methyl-6-morpholin-4-ylpyridin-4-yl)oxyphenyl]pyrimidin-5-yl]methanamine] | 10 to 1000 nM |
| Cn1nc(-c2ccccn2)cc1Oc1cc(C#N)ccc1-c1cc(Cl)c(CN)cn1 [compound 1316, 4-[5-(aminomethyl)-4-chloropyridin-2-yl]-3-(2-methyl-5-pyridin-2-ylpyrazol-3-yl)oxybenzonitrile] | < 10 nM |
| Cn1nc([C@H]2CCCO2)cc1Oc1cc(C#N)ccc1-c1ccc(CCN)cn1 [compound 1317] | < 10 nM |

Continued, values first:

| IC50 | SMILES |
| --- | --- |
| 10 to 1000 nM | Cn1nc(-c2ccccn2)cc1Oc1cc(C#N)ccc1-c1ncc(C(F)(F)CN)cn1 [compound 1318, 4-[5-(2-amino-1,1-difluoroethyl)pyrimidin-2-yl]-3-(2-methyl-5-pyridin-2-ylpyrazol-3-yl)oxybenzonitrile] |
| 10 to 1000 nM | Cc1cc(Oc2cc(C#N)ccc2-c2ncc(C(F)(F)CN)cn2)cc(N2CCOCC2)n1 [compound 1319, 4-[5-(2-amino-1,1-difluoroethyl)pyrimidin-2-yl]-3-(2-methyl-6-morpholin-4-ylpyridin-4-yl)oxybenzonitrile] |
| 10 to 1000 nM | Cc1cc(Oc2cc(Cl)ccc2-c2ccc(CN)cn2)cc(N2CCOCC2)n1 [compound 1321, [6-[4-chloro-2-(2-methyl-6-morpholin-4-ylpyridin-4-yl)oxyphenyl]pyridin-3-yl]methanamine] |
| < 10 nM | Cn1nc(-c2ccccn2)cc1Oc1cc(Cl)ccc1-c1ncc(CCN)cn1 [compound 1322, 2-[2-[4-chloro-2-(2-methyl-5-pyridin-2-ylpyrazol-3-yl)oxyphenyl]pyrimidin-5-yl]ethanamine] |
| < 10 nM | Cn1nc(-c2ccccn2)cc1Oc1cc(Cl)ccc1-c1ncc(CN)cn1 [compound 1323, [2-[4-chloro-2-(2-methyl-5-pyridin-2-ylpyrazol-3-yl)oxyphenyl]pyrimidin-5-yl]methanamine] |
| < 10 nM | Cn1nc(-c2ccccn2)cc1Oc1cc(Cl)ccc1-c1ncc([C@H](F)CN)cn1 [compound 1324, (2S)-2-[2-[4-chloro-2-(2-methyl-5-pyridin-2-ylpyrazol-3 yl)oxyphenyl]pyrimidin-5-yl]-2-fluoroethanamine] |
| < 10 nM | Cn1nc(-c2ccccn2)cc1Oc1cc(Cl)ccc1-c1ncc([C@@H](F)CN)cn1 [compound 1325, (2R)-2-[2-[4-chloro-2-(2-methyl-5-pyridin-2-ylpyrazol-3-yl)oxyphenyl]pyrimidin-5-yl]-2-fluoroethanamine] |
| 10 to 1000 nM | Cn1nc(-c2ccccn2)cc1Oc1cc(C#N)ccc1-c1ccc(CN)nn1 [compound 1326, 4-[6-(aminomethyl)pyridazin-3-yl]-3-(2-methyl-5-pyridin-2-ylpyrazol-3-yl)oxybenzonitrile] |
| 10 to 1000 nM | COc1nc(-c2ccc(C#N)cc2Oc2cc(-c3ccccn3)nn2C)ncc1[C@@H](O)CN [compound 1327, 4-[5-[(1R)-2-amino-1-hydroxyethyl]-4-methoxypyrimidin-2-yl]-3-(2-methyl-5-pyridin-2-ylpyrazol-3-yl)oxybenzonitrile] |
| 10 to 1000 nM | COc1nc(-c2ccc(C#N)cc2Oc2cc(-c3ccccn3)nn2C)ncc1[C@H](O)CN [compound 1328, 4-[5-[(1S)-2-amino-1-hydroxyethyl]-4-methoxypyrimidin-2-yl]-3-(2-methyl-5-pyridin-2-ylpyrazol-3-yl)oxybenzonitrile] |
